# Data: patent EP1066315B1 (University of Dundee, priority 1998, dated 2008)
# Entries after “also recorded” stand apart in the source; their conditions may differ. Residues, ends and D or L forms follow the SMILES beside them. *: point of attachment. Fmoc = O=C(OCC1c2ccccc2-c2ccccc21)*
# What was measured:
# [1] = test system: EBV-transformed B cells / autologous TTCF-specific T cell clones; assay: TTCF antigen presentation by EBV-transformed B cells, read out as proliferation of autologous T cell clones; format: cell-based, human
# Method: (§1) The invention will now be described by reference to the following Examples and Figures wherein • Figure 1: Processing of TTCF by a leupeptin-insensitive cysteine endopeptidase activity. (a) TTCF was digested in vitro in the presence of disrupted lysosomes (1-2 µg) in the presence or absence of iodoacetamide (1 mM), leupeptin, E64 or pepstatin (each at 0.1 mg/ml). Digestions were in 0.1 M NH4 acetate at pH 4.5 or Na2HPO4, pH 6.0 or 7.0. After 4 hours at 37°C, the reactions were separated by Tris-tricine SDS-PAGE and stained with Coomassie Blue. (b) Cleavage sites: TTCF digestion products were separated by SDS PAGE and electrophoretically transferred to nitrocellulose membrane. Individual fragments numbered 1-6 were subjected to 5 cycles of Edman degradation. N-terminal sequence obtained is shown in bold following upstream residues from TTCF (tetanus toxin numbering). The N-terminal sequence of His-tagged TTCF was obtained for fragments 1 and 3. (c) Residues Asn 1184 and Glu 1184 in TTCF were mutated to alanine (see Methods) and digestions performed as before. The mutation abolishes cleavage at the mutated site but not at the first site (doublet at 47 kD). In this experiment cleavage of the third site was minimal. • Figure 2: TTCF is processed by an asparaginyl endopeptidase. (a) Chromatography of the TTCF processing activity on Mono-S resin. Fractions eluted by NaCl gradient were incubated with the substrates Z-Ala-Ala-Asn-NHMec or Z-Phe-Arg-NHMec in the presence or absence of E64 (trans-epoxysuccinyl-L-leucylamido-(4-guanidino)butane). […] (c) Each fraction was analysed by SDS-PAGE and Western blotting. […] Release of 7-amino-4-methyl coumarin was measured after 10, 20 or 30 minutes. […] At different times the cells were washed, fixed in 0.05 % glutaraldehyde and antigen presentation measured using proliferation of different autologous TTCF-specific T cell clones. c, AEP pre-processing of TTCF speeds antigen presentation. […] Presentation was measured after 60 minutes of antigen pulsing using EBV B cells. […]
# [2] = test system: Human B-cell AEP; assay: Digestion of TTCF by human B-cell AEP in the presence of tetrapeptides; format: biochemical; settings: Fig 3d
# [3] = test system: cathepsin L/B; assay: Hydrolysis of cathepsin L/B substrate Z-Phe-Arg-NHMec by B cell lysosomal fractions; format: biochemical, human; settings: Fig 3b
# Method: as §1, with “numbering).” for “numbering). The N-terminal sequence of His-tagged TTCF was obtained for fragments 1 and 3. (c) Residues Asn 1184 and Glu 1184 in TTCF were mutated to alanine (see Methods) and digestions performed as before. The mutation abolishes cleavage at the mutated site but not at the first site (doublet at 47 kD). In this experiment cleavage of the third site was minimal. • Figure 2: TTCF is processed by an asparaginyl endopeptidase. (a) Chromatography of the TTCF processing activity on Mono-S resin. Fractions eluted by NaCl gradient were incubated with the substrates Z-Ala-Ala-Asn-NHMec or Z-Phe-Arg-NHMec in the presence or absence of E64 (trans-epoxysuccinyl-L-leucylamido-(4-guanidino)butane).”
# [4] = test system: peripheral blood mononuclear cells (PBMC) / autologous TTCF specific T cell clones; assay: TTCF antigen presentation by PBMC, read out as proliferation of autologous T cell clones; format: cell-based, human
# Method: The invention will now be described by reference to the following Examples and Figures wherein • Figure 1: Processing of TTCF by a leupeptin-insensitive cysteine endopeptidase activity. (a) TTCF was digested in vitro in the presence of disrupted lysosomes (1-2 µg) in the presence or absence of iodoacetamide (1 mM), leupeptin, E64 or pepstatin (each at 0.1 mg/ml). Digestions were in 0.1 M NH4 acetate at pH 4.5 or Na2HPO4, pH 6.0 or 7.0. After 4 hours at 37°C, the reactions were separated by Tris-tricine SDS-PAGE and stained with Coomassie Blue. (b) Cleavage sites: TTCF digestion products were separated by SDS PAGE and electrophoretically transferred to nitrocellulose membrane. Individual fragments numbered 1-6 were subjected to 5 cycles of Edman degradation. N-terminal sequence obtained is shown in bold following upstream residues from TTCF (tetanus toxin numbering). The N-terminal sequence of His-tagged TTCF was obtained for fragments 1 and 3. (c) Residues Asn 1184 and Glu 1184 in TTCF were mutated to alanine (see Methods) and digestions performed as before. The mutation abolishes cleavage at the mutated site but not at the first site (doublet at 47 kD). In this experiment cleavage of the third site was minimal. • Figure 2: TTCF is processed by an asparaginyl endopeptidase. (a) Chromatography of the TTCF processing activity on Mono-S resin. Fractions eluted by NaCl gradient were incubated with the substrates Z-Ala-Ala-Asn-NHMec or Z-Phe-Arg-NHMec in the presence or absence of E64 (trans-epoxysuccinyl-L-leucylamido-(4-guanidino)butane). […] (b) Fractions as above were incubated with 10 µg TTCF in the presence or absence of E64 for 4 hours at 37°C prior to SDS-PAGE analysis. (c) Each fraction was analysed by SDS-PAGE and Western blotting. Electrophoretically transferred material was probed with an affinity purified antiserum raised against the peptide KGIGSGKVLKSGPQC from human legumain^1. • Figure 3: Peptide inhibitors of AEP block asparaginyl endopeptidase activity and TTCF processing in vitro and in vivo. (a) TTCF was digested with purified AEP (legumain from pig kidney) in the presence or absence of 0.2 mg/ml of the peptides indicated. […] (b) Purified AEP or a crude lysosomal protease mixture were incubated with Z-Ala-Ala-Asn-NHMec, Z-Phe-Arg-NHMec (cathepsins L&B) or Z-Val-Val-Ala NHMec (cathepsin S) in the presence of increasing concentrations of AENK or AEQK. Release of 7-amino-4-methyl coumarin was measured after 10, 20 or 30 minutes. […] At different times the cells were washed, fixed in 0.05 % glutaraldehyde and co-cultured with autologous TTCF specific T cell clones. […] Proteins obtained from commercial sources, as described in the literature or custom peptides were digested with purified pig kidney legumain at pH 5.5 in the presence of 1 mM DTT. […] When present peptide was maintained during antigen pulsing at 1 mg/ml (a) or 2 mg/ml (b). At different times the cells were washed, fixed in 0.05 % glutaraldehyde and antigen presentation measured using proliferation of different autologous TTCF-specific T cell clones. c, AEP pre-processing of TTCF speeds antigen presentation. […] Presentation was measured after 60 minutes of antigen pulsing using EBV B cells.
# If AEP plays a role in TTCF processing in antigen presenting cells then sufficiently high levels of the competing AENK peptide might be expected to interfere with normal class II MHC loading of TTCF epitopes. Following a 15 minute preincubation with or without tetrapeptides, freshly isolated peripheral blood mononuclear cells (PBMC) were incubated with TTCF antigen in the continued presence or absence of the peptides. At different times, the cells were washed, fixed and then co-cultured with different autologous T cell clones to assess expression of different peptide/MHC complexes. […] At later times there was some recovery of presentation of these epitopes as expected for a competitive inhibitor. […]
# [5] = PBMC, 1 mg/ml peptide, 30 µg/ml TTCF, after 60 minutes of antigen pulsing
compound,measurement,setting,value
"C[C@H](NC(=O)OCC1c2ccccc2-c2ccccc21)C(=O)N[C@@H](CCC(=O)O)C(=O)N[C@@H](CC(N)=O)C(=O)N[C@@H](CCCCN)C(N)=O [AENK, Ala-Glu-Asn-Lys-NH] (Fmoc-AENK-NH2)",presentation of AEP-pre-processed antigen,"[1]; EBV B cells, TTCF pre-processed with AEP, 60 minutes of antigen pulsing, Fig 9d",no longer inhibited; also recorded: did not block
same,antigen presentation by EBV-B cells,"[1]; EBV-B cells from donor, 2 mg/ml peptide, Fig 9b",blocked antigen presentation by EBV-B cells very effectively
same,inhibition of TTCF digestion by human B-cell AEP,[2],inhibited
same,"hydrolysis of the cathepsin L/B substrate, Z-Phe-Arg-NHMec",[3],had no effect
same,presentation to T cell clone AK 6,[4]; [5],profoundly inhibited
same,presentation to T cell clones AK 20 and AK 90,[4]; [5],undetectable
same,"presentation to other clones recognising other regions of TTCF (eg AK 111, 71 and 33)","[4]; PBMC, 1 mg/ml peptide, 30 µg/ml TTCF, Fig 3c",not affected
same,"presentation to most clones (eg AK 5, 90 & 6) at early times","[4]; PBMC, 1 mg/ml peptide, between 30 and 60 minutes of antigen pulsing, Fig 9a",undetactable
same,inhibitory effect on presentation when TTCF pre-digested in vitro by AEP is used,"[4]; TTCF pre-digested in vitro by AEP, data not shown",could be overridden
